Reference: ChEMBL document CHEMBL3045315, “Effect of ring A and ring B substitution on the cytotoxic potential of pyrazole tethered chalcones” (Med Chem Res, 2012)

Assays:
Format in all cases: functional, cell-based
[1] = test system: HEp-2; experiment: Cytotoxicity against Homo sapiens (human) Hep2 cells after 48 hr by SRB assay; conditions: HEp-2, 48 h
[2] = test system: OVCAR; experiment: Cytotoxicity against Homo sapiens (human) OVCAR cells after 48 hr by SRB assay
[3] = test system: IMR-32; experiment: Cytotoxicity against Homo sapiens (human) IMR32 cells after 48 hr by SRB assay; conditions: IMR-32, 48 h
[4] = test system: PC-3; experiment: Cytotoxicity against Homo sapiens (human) PC3 cells after 48 hr by SRB assay; conditions: PC-3, 48 h

Row | Structure (SMILES) | IC50 [1] [µM] | IC50 [2] [µM] | IC50 [3] [µM] | IC50 [4] [µM]
1 | CC(=O)N1N=C(c2ccc3ccccc3c2)CC1c1ccccc1[N+](=O)[O-] (centres undefined) | 3.63 | 3.48 | 3.36 | 3.01
2 | CC(=O)N1N=C(c2ccccc2)CC1c1ccc2c(c1)OCO2 (centres undefined) | 6.65 | 8.73 | 7.64 | 8.89
3 | COc1ccc(OC)c(C2CC(c3ccco3)=NN2C(C)=O)c1 (centres undefined) | 13.3 | 11 | 11.8 | 11.2
4 | COc1ccc(C2CC(c3ccco3)=NN2C(C)=O)cc1 (centres undefined) | 15.6 | 14.3 | 14.5 | 15.5
5 | CC(=O)N1N=C(c2ccccc2)CC1c1ccccc1 (centres undefined) | 11.8 | 23.5 | 11.9 | 8.69
6 | CC(=O)N1N=C(c2cccc3ccccc23)CC1c1ccccc1[N+](=O)[O-] (centres undefined) | 3.96 | 4.32 | 3.98 | 3.54
7 | CC(=O)N1N=C(c2ccco2)CC1c1ccc([N+](=O)[O-])cc1 (centres undefined) | 21.8 | 23 | 35.8 | 21.3
8 | CC(=O)N1N=C(c2ccc(Br)cc2)CC1c1ccc2c(c1)OCO2 (centres undefined) | 8.72 | 11.2 | 9.89 | 11
9 | COc1ccc(C2CC(c3cccc4ccccc34)=NN2C(C)=O)cc1OC (centres undefined) | 1.03 | 2.69 | 1.68 | 2.01
10 | CC(=O)N1N=C(c2cccc3ccccc23)CC1c1ccc2c(c1)OCO2 (centres undefined) | 1.07 | 3.76 | 1.91 | 2.09
11 | COc1cc(C2CC(c3ccc4ccccc4c3)=NN2C(C)=O)cc(OC)c1OC (centres undefined) | 0.53 | 0.64 | 0.67 | 0.57
12 | CC(=O)N1N=C(c2ccccc2)CC1c1cccc(Cl)c1Cl (centres undefined) | 24 | 36.8 | 42.9 | 31.6
13 | CC(=O)N1N=C(c2ccco2)CC1c1ccc(Cl)cc1 (centres undefined) | 57.4 | 31.3 | 38.9 | 39
14 | COc1cc(C2CC(c3cccc4ccccc34)=NN2C(C)=O)ccc1O (centres undefined) | 1.13 | 2.73 | 1.78 | 2.13
15 | COc1ccc(C2CC(c3ccco3)=NN2C(C)=O)cc1OC (centres undefined) | 9.99 | 31.2 | 11.2 | 12.3
16 | CC(=O)N1N=C(c2cccc3ccccc23)CC1c1ccco1 (centres undefined) | 17 | 13 | 8 | 18
17 | COc1cc(C2CC(c3ccc(Br)cc3)=NN2C(C)=O)cc(OC)c1OC (centres undefined) | 4.53 | 4.78 | 3.13 | 3.45
18 | CC(=O)O[C@H]1C(=O)[C@@]2(C)[C@H]([C@H](OC(=O)c3ccccc3)[C@]3(O)C[C@H](OC(=O)[C@H](O)[C@@H](NC(=O)c4ccccc4)c4ccccc4)C(C)=C1C3(C)C)[C@]1(OC(C)=O)CO[C@@H]1C[C@@H]2O [PACLITAXEL] | 0.11 | 0.06 | 0.03 | 0.12
19 | COc1ccc(OC)c(C2CC(c3cccc4ccccc34)=NN2C(C)=O)c1 (centres undefined) | 1.31 | 2.65 | 1.58 | 1.98
20 | COc1cc(OC)c(C2CC(c3ccco3)=NN2C(C)=O)cc1OC (centres undefined) | 6.69 | 6.76 | 7.76 | 8.98
21 | CC(=O)N1N=C(c2ccc3ccccc3c2)CC1c1ccc2ccccc2c1 (centres undefined) | 0.17 | 0.23 | 0.19 | 0.2
